The record followed here is patent US20090105278A1, “Selective inhibitors of human corticosteroid syntheses” (Universitat Des Saarlandes, priority 2004, published 2009).

Structures can show the parent of a compound that is named as a salt.

In assay [1] the target is T1, human CYP17 (Homo sapiens, UniProt P05093).
T1 construct: made in house; host or cells: E. coli pJL17/OR (membrane fraction)
T1 sequence (P05093 1-508): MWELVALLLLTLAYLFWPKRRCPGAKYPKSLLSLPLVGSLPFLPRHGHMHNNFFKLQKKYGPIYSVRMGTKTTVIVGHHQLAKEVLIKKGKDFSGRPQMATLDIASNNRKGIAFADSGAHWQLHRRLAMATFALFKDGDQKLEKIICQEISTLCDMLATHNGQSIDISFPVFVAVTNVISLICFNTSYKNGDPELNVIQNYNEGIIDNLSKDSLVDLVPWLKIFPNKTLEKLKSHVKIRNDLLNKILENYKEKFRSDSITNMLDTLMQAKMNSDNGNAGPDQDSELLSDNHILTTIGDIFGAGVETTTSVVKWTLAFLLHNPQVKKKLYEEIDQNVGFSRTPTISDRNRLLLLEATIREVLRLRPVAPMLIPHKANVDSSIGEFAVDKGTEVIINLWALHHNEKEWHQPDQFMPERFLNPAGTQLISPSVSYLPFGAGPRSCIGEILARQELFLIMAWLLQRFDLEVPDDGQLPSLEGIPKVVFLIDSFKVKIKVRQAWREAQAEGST
Description: Percent inhibition of CYP17 (membrane fraction of E. coli pJL17/OR). Type of assay: biochemical. Conditions: E. coli which expresses human CYP17, 5 mg/ml protein, progesterone substrate 2.5 μM, inhibitor 2.5 μM; for inhibition at 2.5 µM: read-out: % Inhibition human CYP17. The essentials:
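Membranes were isolated from E. coli pJL17/OR, which coexpresses human CYP17 with rat NADPH-P450-reductase, by lysozyme treatment, sonication and centrifugation at 50,000 g, then stored at −70° C. Reactions were started with diluted membrane suspension (0.8 to 1 mg of protein per ml), incubated at 37° C for 30 min, extracted with EtOAc and analyzed by HPLC. Inhibition was calculated from reduced substrate conversion versus DMSO controls.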

Assay [2] concerns the target T2, human CYP11B2 (Homo sapiens, UniProt P19099).
T2 sequence (P19099 25-503): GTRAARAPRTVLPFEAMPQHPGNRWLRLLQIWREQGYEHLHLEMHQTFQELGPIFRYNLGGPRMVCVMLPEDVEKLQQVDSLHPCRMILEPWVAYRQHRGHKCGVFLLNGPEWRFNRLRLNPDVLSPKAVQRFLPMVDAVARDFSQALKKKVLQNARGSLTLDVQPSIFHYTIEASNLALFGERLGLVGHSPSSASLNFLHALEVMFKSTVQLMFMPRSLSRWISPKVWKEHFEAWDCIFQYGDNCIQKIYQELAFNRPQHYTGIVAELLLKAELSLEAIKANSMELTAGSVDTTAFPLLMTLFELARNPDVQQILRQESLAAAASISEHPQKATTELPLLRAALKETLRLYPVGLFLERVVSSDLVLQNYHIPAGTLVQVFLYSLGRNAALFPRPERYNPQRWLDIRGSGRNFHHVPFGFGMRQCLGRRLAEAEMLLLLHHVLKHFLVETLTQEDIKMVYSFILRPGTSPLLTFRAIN
The assay is described as follows: V79 MZh 11B2 cells inhibition test. Type of assay: cell-based. Also noted: expressed in transfected cells; host or cells: V79 MZh11B2 (Chinese hamster lung fibroblasts). Conditions: for IC50: hamster fibroblasts which express human CYP11B2, deoxycorticosterone substrate 100 nM, read-out: IC50 V79 11B2 hCYP11B2. Here is the method:
Both cell lines were cultured in DMEM^+ containing […] and the antibiotics penicillin and streptomycin (10%) for protection from bacterial contamination. The cells were passaged every 2-3 days after treatment with trypsin/EDTA because the doubling rate was 1-2 days depending on the number of cells. […] When there was further need, freshly thawed cells were employed.
Thereafter, the plate was stored at 37° C. and […] in a CO2 incubator. The V79 MZh 11B1 cells were incubated for 120 min, and the V79 MZh 11B2 cells were incubated for 40 min. Controls without inhibitor were treated in the same way. The enzyme reactions were quenched by extracting the supernatant with 500 μl of EtOAc. The samples were centrifuged (10,000 g, 2 min), the solvent was removed and evaporated.
For V79 MZh11B2, the conversion rate was obtained in accordance with equation 3: […]
It was calculated by determining the percent inhibition for at least 3 different inhibitor concentrations, which must all be in the linear range of the sigmoidal IC50 curve (log C/% inhibition).
The calculation was effected by linear regression. The values determined were used only if they formed a straight line with a reliability of […].
The plate was developed twice with the mobile solvent chloroform:methanol:water (300:20:1). Unlabeled 11-deoxycorticosterone and corticosterone were applied as a reference for the CYP11B1 reaction. For the CYP11B2 reaction, 11-deoxycorticosterone, corticosterone, 18-hydroxycorticosterone and aldosterone were used as references. The detection of the unlabeled references was effected at 260 nm. Subsequently, imaging plates (BAS MS2340, for ^14C samples, Raytest, Straubenhardt, Germany) were exposed to the HPTLC plates for 48 h. The imaging plates were scanned with the phosphoimager system Fuji FLA 3000 (Raytest, Straubenhardt, Germany), and the steroids were quantified.

In general, IC50 refers to the concentration that inhibits the measured activity by half. As for `C(=C1\CCc2ccccc21)/c1cccnc1.Cl` [Compound 1b, 3-[(Z)-2,3-Dihydro-1H-indane-1-ylidenemethyl]pyridine Hydrochloride], in assay [1], the “% Inhibition human CYP17” value is recorded as 33%. Besides, in assay [2], the IC50 amounted to 92 nM.
One may read the inhibition as how much of the control response was suppressed. As to `Clc1cccc2c1CC/C2=C\c1cccnc1` [Compound 25a, 3-[(E)-(4-Chloro-2,3-dihydro-1H-indane-1-ylidene)methyl]pyridine Hydrochloride], the inhibition at 2.5 µM in assay [1] came out at 14%. Moreover, the IC50 in assay [2] amounted to 8.7 nM.
As for `Clc1ccc2c(c1)CC/C2=C\c1ccncc1` [Compound 8a, 4-[(E)-(5-Chloro-2,3-dihydro-1H-indane-1-ylidene)methyl]pyridine Hydrochloride], the inhibition at 2.5 µM in assay [1] is 18%. The half-maximal inhibitory concentration (IC50) in assay [2] turned out to be 1520 nM.
For `Fc1ccc2c(c1)CC/C2=C/c1cccnc1` [Compound 5b, 3-[(Z)-(5-Fluoro-2,3-dihydro-1H-indane-1-ylidene)methyl]pyridine Hydrochloride] the same measures were 16% and 10.8 nM.
Turning to `Fc1ccc2c(c1)CC/C2=C\c1cccnc1` [Compound 5a, 3-[(E)-(5-Fluoro-2,3-dihydro-1H-indane-1-ylidene)methyl]pyridine Hydrochloride], in assay [1], the inhibition at 2.5 µM is 17%. In addition, in assay [2], the IC50 worked out at 6.8 nM.
For the compound `Fc1ccc2c(c1)CC/C2=C/c1cccc2cnccc12` [Compound 30b, 5-[(Z)-(5-Fluoro-2,3-dihydro-1H-indane-1-ylidene)methyl]isoquinoline Hydrochloride], in assay [1], the inhibition at 2.5 µM is 65%. The IC50 in assay [2] was 26.1 nM.
Take `C(=C1\CCCc2ccccc21)/c1cccnc1.Cl` [Compound 3b, 3-[(Z)-3,4-Dihydronaphthalene-1(2H)-ylidenemethyl]pyridine Hydrochloride]: in assay [1], the inhibition at 2.5 µM is 24%. The IC50 in assay [2] amounted to 141 nM.
For the compound `Brc1ccc2c(c1)CC/C2=C/c1cccnc1` [Compound 9b, 3-[(Z)-(5-Bromo-2,3-dihydro-1H-indane-1-ylidene)methyl]pyridine Hydrochloride], the inhibition at 2.5 µM in assay [1] came to 24%. Further, the IC50 in assay [2] turned out to be 171 nM.
Regarding `C(=C1\CCc2ccccc21)/c1ccncc1` [Compound 2b, 4-[(Z)-2,3-Dihydro-1H-indane-1-ylidenemethyl]pyridine oxalate], the inhibition at 2.5 µM in assay [1] was determined as 18%. Further, in assay [2], the 50% inhibitory concentration (IC50) was 931 nM.
The matching figures for `CCOc1ccc2c(c1)CC/C2=C/c1cccnc1` [Compound 19b, 3-[(Z)-(5-Ethoxy-2,3-dihydro-1H-indane-1-ylidene)methyl]pyridine Hydrochloride]: 6% and 248 nM.
For “5-[(Z)-(5-Chloro-2,3-dihydro-1H-indene-1-ylidene)methyl]-1H-imidazolium oxalate [Compound 48b]”, the “% Inhibition human CYP17” value in assay [1] was 26%. Besides, the “Selectivity factor IC50 (CYP11B1)/IC50 (CYP11B2)” value in assay [2] (V79 cells expressing human CYP11B1 or CYP11B2) was “five times”.
Consider `Clc1ccc2c(c1)CC/C2=C/c1cccnc1` [Compound 7b, 3-[(Z)-(5-Chloro-2,3-dihydro-1H-indane-1-ylidene)methyl]pyridine Hydrochloride], for which the inhibition at 2.5 µM in assay [1] was 28%. The IC50 in assay [2] is 72.7 nM.
The matching figures for `Brc1ccc2c(c1)CC/C2=C\c1cccnc1` [Compound 9a, 3-[(E)-(5-Bromo-2,3-dihydro-1H-indane-1-ylidene)methyl]pyridine Hydrochloride]: 16% and 37.4 nM.
The matching figures for `Brc1ccc2c(c1)CC/C2=C\c1cnc[nH]1.Cl` [Compound 49a, 5-[(E)-(5-Bromo-2,3-dihydro-1H-indene-1-ylidene)methyl]-1H-imidazolium chloride]: 13% and 92.8 nM.
`C(=C1/CCc2ccccc21)/c1cccnc1` [Compound 1a, 3-[(E)-2,3-Dihydro-1H-indane-1-ylidenemethyl]pyridine Hydrochloride]: the inhibition at 2.5 µM in assay [1] is 14%. Also, the IC50 in assay [2] was found to be 10.6 nM.
On to `Clc1ccc2c(c1)CC/C2=C\c1cccnc1` [Compound 7a, 3-[(E)-(5-Chloro-2.3-dihydro-1H-indane-1-ylidene)methyl]pyridine Hydrochloride], for which the inhibition at 2.5 µM in assay [1] was determined as 26%. Moreover, the concentration for half-maximal inhibition (IC50) in assay [2] was found to be 26.2 nM.
With `C(=C1/CCCc2ccccc21)/c1cccnc1.Cl` [Compound 3a, 3-[(E)-3,4-Dihydronaphthalene-1(2H)-ylidenemethyl]pyridine Hydrochloride], in assay [1], the inhibition at 2.5 µM is 9%. Besides, in assay [2], the IC50 came to 21.6 nM.
